Columns and labels:
[1] = test system: social withdrawal of intruder mice; assay: social withdrawal of intruder mice; type: in vivo; details: dose range of 1 to about 100 mg/kg p.o.
Excerpt: The activity of the compound of formula I in the treatment of affective and attention disorders treatment is also evidenced, for example, in tests suitable for detecting drugs having potential behavioural desinhibitory and/or sociotropic effects which are thought to be relevant for recovery from social withdrawal, a cardinal feature of depression and related psychiatric conditions. For instance, drug effects on social withdrawal of intruder mice can be evaluated by using the basic method as described in Triangle, 1982, 21:95-105 and J. Clin. Psychiatry, 1994, 55:9 (suppl. B) 4-7.

GABA turnover = GABA turnover determination after maximal inhibition of GABA-T; type: in vivo; details: doses of 30 to about 300 mg/kg p.o.
Excerpt: The activity of the compound of formula I on GABA turnover is evidenced in the following experiment: The determination of GABA turnover Is based on the linear increase in GABA level observed after the maximal inhibition of gamma-aminobutyric acid transaminase (GABA-T). The values obtained with this approach for the rate of GABA synthesis are independent of the inhibitors used and within the catalytic capacity of the enzymes involved in the GABA shunt.

[2] = test system: neuropathic mechanical hyperalgesia; assay: model of neuropathic pain in the guinea pig (partial sciatic nerve ligation, mechanical hyperalgesia); type: in vivo, Dunkin Hartley guinea pigs; details: paw withdrawal threshold, up to 6 hours
Excerpt: The direct activity of the compound of formula I in the treatment of neuropathic pain is evidenced, for example, in the following model of neuropathic pain in the guinea pig: Dunkin Hartley guinea pigs are anaesthetised with enflurane (in N2O:O2 for guinea pigs) and the left sciatic nerve is exposed and partially ligated with thread. This procedure produces a mechanical hyperalgesia, which develops within 2-3 days and is maintained for at least 4 weeks. Paw withdrawal thresholds to a pressure stimulus are measured using an analgesymeter. Mechanical thresholds are taken on both the ipsilateral (ligated) and contralateral (unligated) paw prior to and then up to 6 hours following drug or vehicule administration. Reversal of hyperalgesia at each time point is calculated. Groups of 6 animals are used. Statistical analysis is carried out on withdrawal threshold readings using ANOVA followed by Tukey's HSD test.

[3] = test system: chronic pain in patients with diabetic neuropathy; assay: clinical trials in chronic pain in patients with diabetic neuropathy; type: in vivo; details: Maintenance and Follow-up Periods
Excerpt: The activity of the compound of formula I in the treatment of neuropathic pain and related disorders can be confirmed in clinical trials evaluating the efficacy of a compound in treating chronic pain in patients with diabetic neuropathy.

Structure (SMILES): NC(=O)N1c2ccccc2CC(O)c2ccccc21 (centres unmarked) [compound of formula I, 10-hydroxy-10,11-dihydro-carbamazepine]
- social investigation in the treated mouse [1]: increases social investigation
- GABA turnover rate (GABA turnover): dose-dependently inhibits
- reversal of neuropathic mechanical hyperalgesia ([2]; 3 to about 100 mg/kg s.c.): significantly and dose-dependently reverses
- reversal of neuropathic mechanical hyperalgesia ([2]; 10 to about 100 mg/kg p.o.): significantly and dose-dependently reverses
- pain severity ratings relative to placebo [3]: decrease pain severity ratings
